Values quoted from earlier work as cited in patent publication US20100093758A1, “PYRIDINE SULFONAMIDE MODULATORS OF ENDOTHELIN-A RECEPTOR” (AUSPEX PHARMACEUTICALS, INC., priority 2008, published 2010).

Columns and labels:
[1] = not given; remark: listed apart in the source

COc1ccccc1Oc1c(NS(=O)(=O)c2ccc(C)cn2)nc(-c2ccncc2)nc1OC [Avosentan, 5-Methyl-pyridine-2-sulfonic acid [6-methoxy-5-(2-methoxy-phenoxy)-2-pyridin-4-yl-pyrimidin-4-yl]-amide]
dose dependence of Cmax and AUC (doses up to 100 mg): increase linearly with doses up to 100 mg | time at which maximum plasma levels are reached (in vivo): ≤ 4.5 h | urinary excretion (in vivo): below 0.1 % of any dose | food effect on exposure and Cmax (with food): does not affect overall exposure but increases Cmax | fluid retention ([1]; at high concentrations): higher-than-expected rate of fluid retention | adverse events ([1]; typical for vasodilating agents): headache, nausea and vomiting, dizziness, and postural hypotension
